Source: patent US5368707A, “Convenient determination of trace lead in whole blood and other fluids” (priority 1993, dated 1994)
Entries after “also recorded” stand apart in the source; their conditions may differ.

Assays:
alcohol dehydrogenase = system: alcohol dehydrogenase
Experimental: A bioelectrode was prepared from colloidal gold adsorbed alcohol dehydrogenase according the procedure of Example 2 for ICD. Measurements were made in the microcell as described in Example 1 using various concentrations of mercury.

isocitrate dehydrogenase = target: T1, isocitrate dehydrogenase (Sus scrofa, UniProt P33198); assay: Effect of complexing agents and other assay components on isocitrate dehydrogenase activity and its lead inhibition; type: biochemical, pig
T1 construct: purchased Sigma, St. Louis, Mo; ICD Type VI
T1 sequence (P33198 9-421): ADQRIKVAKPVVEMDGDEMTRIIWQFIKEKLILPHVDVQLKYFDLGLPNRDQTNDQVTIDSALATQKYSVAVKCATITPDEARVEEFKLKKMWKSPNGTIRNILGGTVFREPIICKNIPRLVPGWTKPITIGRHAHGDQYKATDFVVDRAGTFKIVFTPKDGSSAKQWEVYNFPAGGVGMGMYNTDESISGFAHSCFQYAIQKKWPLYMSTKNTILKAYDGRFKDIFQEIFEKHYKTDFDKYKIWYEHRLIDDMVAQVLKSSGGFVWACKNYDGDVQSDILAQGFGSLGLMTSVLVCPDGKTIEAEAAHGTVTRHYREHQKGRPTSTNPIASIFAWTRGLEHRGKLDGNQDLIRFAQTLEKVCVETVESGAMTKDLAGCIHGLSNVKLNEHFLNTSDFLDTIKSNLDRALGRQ
Excerpt: Any agent used for displacing lead from the EDTA complex must not interfere with the function or activity of the enzyme employed for detection. […] Other auxiliary complexing agents may also be useful, including iminodiacetate, citrate and lithium ion. Li^+1 is known to weaken lead ion binding to bovine serum albumin and is contemplated to be effective in displacing Pb^2+ from the complex.
To solve this problem, the inventors have employed strong chelating reagents to sequester lead ion from interfering blood proteins subsequent to release of the lead from the selected chelating reagent.

[1] = colloidal gold/ADH bioelectrode

mercury ion
detection range (alcohol dehydrogenase; colloidal gold adsorbed ADH biosensor): nanomolar range
amperometric response (alcohol dehydrogenase; [1]): linear response in at nanomolar levels
reversibility of inhibition (alcohol dehydrogenase; [1]): irreversible
specificity of inhibition (alcohol dehydrogenase; in the presence of added lead ion): specific for mercury in the presence of added lead ion

C[n+]1c2ccccc2nc2ccccc21 [NMP-MS, N-methylphenazine methosulfate]
effect on ICDH activity / lead inhibition of ICDH (isocitrate dehydrogenase): interfered with inhibition of the enzyme by added lead ion

O=C(O)[C@@H](S)[C@@H](S)C(=O)O [DMSA, meso 2,3-dimercaptosuccinic acid]
effect on ICDH activity / lead inhibition of ICDH (isocitrate dehydrogenase): do not interfere with electrochemical detection of lead by ICDH inhibition; also recorded: the activity, stability and lead inhibition are not adversely affected

O=C(O)CN(CCN(CC(=O)O)CC(=O)O)CC(=O)O [EDTA]
effect on ICDH activity / lead inhibition of ICDH (isocitrate dehydrogenase): adversely affect lead ion inhibition of isocitric dehydrogenase

c1ccc(-c2ccccc2)cc1 [biphenyl]
effect on ICDH activity / lead inhibition of ICDH (isocitrate dehydrogenase): do not interfere with electrochemical detection of lead by ICDH inhibition

c1cnc2c(c1)ccc1cccnc12 [o-phenanthroline]
effect on ICDH activity / lead inhibition of ICDH (isocitrate dehydrogenase): do not interfere with electrochemical detection of lead by ICDH inhibition; also recorded: the activity, stability and lead inhibition are not adversely affected

[Mg+2] [Mg^+2]
effectiveness as cofactor of isocitric dehydrogenase (isocitrate dehydrogenase; compared with Mn2+, millimolar concentrations): equally effective

c1ccc(-c2ccccn2)nc1 [dipyridyl]
effect on ICDH activity / lead inhibition of ICDH (isocitrate dehydrogenase): the activity, stability and lead inhibition are not adversely affected

CC(=O)O [acetate]
effect on ICDH activity / lead inhibition of ICDH (isocitrate dehydrogenase): the activity, stability and lead inhibition are not adversely affected
